From the supplement of paper PMC8149375

Tests used:
Details in all cases: treatment: drug + dasatinib (fixed dose, not stated); 5 days
786-O [1] = assay: AUC of dose-response viability curve, drug + dasatinib, normalised to DMSO (arbitrary (AUC of normalised viability)); higher = less growth inhibition
Procedure: (§1)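 Primary HTS combination arm: 8 RCC cell lines treated with 8 doses (up to 10 uM) of each library drug plus a fixed dose of dasatinib (dose not stated) for 5 days; viability read by CellTiter-Glo and normalised to DMSO. GI50 was fitted with XLfit, AUC is the area under the dose-response curve, and minimum viability is the lowest fraction of DMSO viability across doses.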

UO-31 [2] = assay: as above
Procedure: as §1

A498 [3] = assay: as above
Procedure: as §1

TK-10 [4] = assay: as above
Procedure: as §1

CAKI-1 [5] = assay: as above
Procedure: as §1

SN12C [6] = assay: as above
Procedure: as §1

ACHN [7] = assay: as above
Procedure: as §1

769-P [8] = assay: as above
Procedure: as §1

UO-31 [9] = assay: GI50 of drug in presence of dasatinib; higher = less potent
Procedure: as §1

A498 [10] = assay: as above
Procedure: as §1

TK-10 [11] = assay: as above
Procedure: as §1

CAKI-1 [12] = assay: as above
Procedure: as §1

SN12C [13] = assay: as above
Procedure: as §1

ACHN [14] = assay: as above
Procedure: as §1

769-P [15] = assay: as above
Procedure: as §1

786-O [16] = assay: minimum viability across doses, drug + dasatinib, relative to DMSO (fraction); higher = less growth inhibition
Procedure: as §1

UO-31 [17] = assay: as above
Procedure: as §1

A498 [18] = assay: as above
Procedure: as §1

TK-10 [19] = assay: as above
Procedure: as §1

CAKI-1 [20] = assay: as above
Procedure: as §1

SN12C [21] = assay: as above
Procedure: as §1

ACHN [22] = assay: as above
Procedure: as §1

769-P [23] = assay: as above
Procedure: as §1

786-O [24] = assay: GI50 of drug in presence of dasatinib; higher = less potent
Procedure: as §1

Row | GI50 of drug (ACHN [14]) | GI50 of drug (786-O [24]) | Structure (SMILES) | AUC of dose-response viability curve (786-O [1]) | AUC of dose-response viability curve (UO-31 [2]) | AUC of dose-response viability curve (A498 [3]) | AUC of dose-response viability curve (TK-10 [4]) | AUC of dose-response viability curve (CAKI-1 [5]) | AUC of dose-response viability curve (SN12C [6]) | AUC of dose-response viability curve (ACHN [7]) | AUC of dose-response viability curve (769-P [8]) | GI50 of drug (UO-31 [9]) | GI50 of drug (A498 [10]) | GI50 of drug (TK-10 [11]) | GI50 of drug (CAKI-1 [12]) | GI50 of drug (SN12C [13]) | GI50 of drug (769-P [15]) | minimum viability across doses (786-O [16]) | minimum viability across doses (UO-31 [17]) | minimum viability across doses (A498 [18]) | minimum viability across doses (TK-10 [19]) | minimum viability across doses (CAKI-1 [20]) | minimum viability across doses (SN12C [21]) | minimum viability across doses (ACHN [22]) | minimum viability across doses (769-P [23])
1 | < 0.003 µM | 0.0545 µM | Cc1cc(C(=O)NOCCO)c(Nc2ccc(I)cc2F)n(C)c1=O [AZD8330] + Cc1nc(Nc2ncc(C(=O)Nc3c(C)cccc3Cl)s2)cc(N2CCN(CCO)CC2)n1 [dasatinib] | 1.67 | 1.9 | 1.77 | 1.64 | 1.21 | 1.5 | 0.912 | 1.49 | – | – | 0.108 µM | 0.0565 µM | 0.0601 µM | 0.0694 µM | 0.323 | 0.0965 | 0.318 | 0.262 | 0.102 | 0.212 | 0.18 | 0.219
2 | 0.0114 µM | – | CNC(=O)CN1CCC(Oc2cc3c(Nc4cccc(Cl)c4F)ncnc3cc2OC)CC1 [AZD8931] + Cc1nc(Nc2ncc(C(=O)Nc3c(C)cccc3Cl)s2)cc(N2CCN(CCO)CC2)n1 [dasatinib] | 1.88 | 2.96 | 2.24 | 1.99 | 2.11 | 2.3 | 1.24 | 1.69 | 4.66 µM | 1.04 µM | 0.477 µM | 2.99 µM | > 10 µM | 0.135 µM | 0.262 | 0.344 | 0.284 | 0.277 | 0.332 | 0.569 | 0.233 | 0.15
3 | 0.0618 µM | 0.0481 µM | CS(=O)(=O)O.O=C(Nc1cccc(Cl)c1)Nc1ncc(CCNc2ncnc3ccsc23)s1 [SNS-314] + Cc1nc(Nc2ncc(C(=O)Nc3c(C)cccc3Cl)s2)cc(N2CCN(CCO)CC2)n1 [dasatinib] | 1.54 | 3.06 | 2.61 | 2.41 | 1.38 | 1.97 | 1.48 | 1.74 | 6.02 µM | – | 3.78 µM | 0.0415 µM | 0.634 µM | 0.155 µM | 0.123 | 0.372 | 0.442 | 0.362 | 0.107 | 0.259 | 0.144 | 0.217
4 | 0.0127 µM | – | CC(C)(O)CC(=O)NCCn1ccc2ncnc(Nc3ccc(Oc4cccc(C(F)(F)F)c4)c(Cl)c3)c21 [TAK-285] + Cc1nc(Nc2ncc(C(=O)Nc3c(C)cccc3Cl)s2)cc(N2CCN(CCO)CC2)n1 [dasatinib] | 1.8 | 3.97 | 3.25 | 1.99 | 2.15 | 2.44 | 1.28 | 2.18 | 6.24 µM | > 10 µM | 0.568 µM | 2.35 µM | > 10 µM | 1.7 µM | 0.338 | 0.224 | 0.83 | 0.346 | 0.311 | 0.556 | 0.172 | 0.22
5 | < 0.003 µM | 0.452 µM | Cn1c(=O)c(F)c(Nc2ccc(I)cc2F)c2c(=O)n(C[C@@H](O)CO)cnc21 [TAK-733] + Cc1nc(Nc2ncc(C(=O)Nc3c(C)cccc3Cl)s2)cc(N2CCN(CCO)CC2)n1 [dasatinib] | 1.96 | 1.88 | 1.92 | 1.71 | 1.2 | 1.51 | 1.21 | 1.73 | 0.2 µM | – | 0.138 µM | 0.0297 µM | 0.0825 µM | 0.192 µM | 0.36 | 0.0313 | 0.355 | 0.199 | 0.0816 | 0.192 | 0.222 | 0.201

The remaining lines, values behind:

Row | Structure (SMILES) | GI50 of drug (ACHN [14]) | GI50 of drug (786-O [24]) | AUC of dose-response viability curve (786-O [1]) | AUC of dose-response viability curve (UO-31 [2]) | AUC of dose-response viability curve (A498 [3]) | AUC of dose-response viability curve (TK-10 [4]) | AUC of dose-response viability curve (CAKI-1 [5]) | AUC of dose-response viability curve (SN12C [6]) | AUC of dose-response viability curve (ACHN [7]) | AUC of dose-response viability curve (769-P [8]) | GI50 of drug (UO-31 [9]) | GI50 of drug (A498 [10]) | GI50 of drug (TK-10 [11]) | GI50 of drug (CAKI-1 [12]) | GI50 of drug (SN12C [13]) | GI50 of drug (769-P [15]) | minimum viability across doses (786-O [16]) | minimum viability across doses (UO-31 [17]) | minimum viability across doses (A498 [18]) | minimum viability across doses (TK-10 [19]) | minimum viability across doses (CAKI-1 [20]) | minimum viability across doses (SN12C [21]) | minimum viability across doses (ACHN [22]) | minimum viability across doses (769-P [23])
6 | Cc1ccc(NC(=O)c2cccc(N(C)C)c2)cc1NC(=O)c1ccc(O)cc1 + Cc1nc(Nc2ncc(C(=O)Nc3c(C)cccc3Cl)s2)cc(N2CCN(CCO)CC2)n1 [dasatinib] | > 10 µM | – | 2 | 4.5 | 3.67 | 2.37 | 2.43 | 2.52 | 2.1 | 2.41 | > 10 µM | > 10 µM | > 10 µM | > 10 µM | > 10 µM | > 10 µM | 0.388 | 1.02 | 0.932 | 0.609 | 0.65 | 0.69 | 0.54 | 0.639
7 | O=C1NC(=O)C(c2ccccc2[N+](=O)[O-])=C1Nc1ccc(O)c(Cl)c1 + Cc1nc(Nc2ncc(C(=O)Nc3c(C)cccc3Cl)s2)cc(N2CCN(CCO)CC2)n1 [dasatinib] | > 10 µM | – | 1.73 | 3.6 | 3.1 | 2.42 | 2.31 | 2.5 | 2.02 | 2.42 | > 10 µM | > 10 µM | > 10 µM | > 10 µM | > 10 µM | > 10 µM | 0.339 | 0.748 | 0.789 | 0.646 | 0.591 | 0.67 | 0.506 | 0.629
8 | CC(=O)Nc1cccc(-n2c(=O)n(C3CC3)c(=O)c3c(Nc4ccc(I)cc4F)n(C)c(=O)c(C)c32)c1 + Cc1nc(Nc2ncc(C(=O)Nc3c(C)cccc3Cl)s2)cc(N2CCN(CCO)CC2)n1 [dasatinib] | 0.0084 µM | 0.0217 µM | 1.48 | 1.88 | 1.96 | 1.58 | 1.29 | 1.58 | 1.2 | 1.68 | 0.159 µM | – | 0.0787 µM | 0.0542 µM | 0.0862 µM | 0.217 µM | 0.321 | 0.0585 | 0.306 | 0.235 | 0.0991 | 0.243 | 0.216 | 0.196
9 | O=C(NC[C@H](O)CO)c1ccncc1Nc1ccc(I)cc1F + Cc1nc(Nc2ncc(C(=O)Nc3c(C)cccc3Cl)s2)cc(N2CCN(CCO)CC2)n1 [dasatinib] | 0.0105 µM | 0.0898 µM | 1.87 | 2.33 | 2.28 | 1.9 | 1.52 | 1.9 | 1.28 | 1.81 | 0.563 µM | – | 0.296 µM | 0.139 µM | 0.307 µM | 0.455 µM | 0.394 | 0.0714 | 0.31 | 0.203 | 0.0863 | 0.227 | 0.216 | 0.212
10 | C[C@@H](Oc1cc(-n2cnc3ccc(CN4CCN(C)CC4)cc32)sc1C(N)=O)c1ccccc1C(F)(F)F + Cc1nc(Nc2ncc(C(=O)Nc3c(C)cccc3Cl)s2)cc(N2CCN(CCO)CC2)n1 [dasatinib] | 0.0212 µM | 0.0107 µM | 0.653 | 1.32 | 1.97 | 2.01 | 1.33 | 1.62 | 1.22 | 1.14 | 0.0774 µM | – | 0.265 µM | 0.0381 µM | 0.0891 µM | 0.031 µM | 0.00468 | 0.00496 | 0.384 | 0.171 | 0.0912 | 0.155 | 0.0897 | 0.0347
11 | Cn1cnc2c(F)c(Nc3ccc(Br)cc3Cl)c(C(=O)NOCCO)cc21 [AZD6244 (Selumetinib)] + Cc1nc(Nc2ncc(C(=O)Nc3c(C)cccc3Cl)s2)cc(N2CCN(CCO)CC2)n1 [dasatinib] | 0.0832 µM | 1.66 µM | 2.26 | 2.32 | 2.11 | 2.38 | 1.77 | 1.84 | 1.64 | 2.1 | – | – | 3.54 µM | 0.646 µM | 1.07 µM | 1.2 µM | 0.507 | 0.143 | 0.301 | 0.477 | 0.129 | 0.0911 | 0.343 | 0.294
12 | Cc1ccc(NC(=O)c2ccc(CN3CCN(C)CC3)cc2)cc1Nc1nccc(-c2cccnc2)n1 [Imatinib (Gleevec)] + Cc1nc(Nc2ncc(C(=O)Nc3c(C)cccc3Cl)s2)cc(N2CCN(CCO)CC2)n1 [dasatinib] | > 10 µM | – | 1.67 | 3.84 | 3.24 | 2.45 | 2.22 | 2.55 | 2.06 | 2.43 | > 10 µM | > 10 µM | > 10 µM | 8.89 µM | > 10 µM | > 10 µM | 0.336 | 0.883 | 0.817 | 0.624 | 0.491 | 0.68 | 0.523 | 0.586
13 | COc1cc(Nc2ncc3c(n2)-c2ccc(Cl)cc2C(c2c(F)cccc2OC)=NC3)ccc1C(=O)O [MLN8237 (Alisertib)] + Cc1nc(Nc2ncc(C(=O)Nc3c(C)cccc3Cl)s2)cc(N2CCN(CCO)CC2)n1 [dasatinib] | 0.025 µM | 0.0602 µM | 1.44 | 3.06 | 2.41 | 2.39 | 1.41 | 1.89 | 1.37 | 1.61 | 5.32 µM | – | 2.74 µM | 0.0749 µM | 0.331 µM | 0.0957 µM | 0.145 | 0.374 | 0.353 | 0.392 | 0.0592 | 0.353 | 0.16 | 0.231
14 | CNC(=O)c1cc(Oc2ccc(NC(=O)Nc3ccc(Cl)c(C(F)(F)F)c3)c(F)c2)ccn1 [Regorafenib (BAY 73-4506)] + Cc1nc(Nc2ncc(C(=O)Nc3c(C)cccc3Cl)s2)cc(N2CCN(CCO)CC2)n1 [dasatinib] | 3.32 µM | – | 2.26 | 2.77 | 3.1 | 2.45 | 2.24 | 2.47 | 2.05 | 2.3 | 4.41 µM | 2.67 µM | 5.85 µM | 2.98 µM | 7.18 µM | 4.04 µM | 0.471 | 0.122 | 0.415 | 0.415 | 0.125 | 0.434 | 0.153 | 0.37
